In ChEMBL document CHEMBL1201862, “PubChem BioAssay data set” (2004):
Active and inactive are the calls of the source.

What was measured:
[1] = molecular target: DNA dC->dU-editing enzyme APOBEC-3A (Homo sapiens, UniProt P31941); test: Dose Response confirmation of small molecule APOBEC3A DNA Deaminase Inhibitors via a fluorescence-based single-stranded DNA deaminase assay. [Related pubchem assays (depositor defined):AID493011, AID493024]; type: functional
[2] = molecular target: DNA dC->dU-editing enzyme APOBEC-3G (Homo sapiens, UniProt Q9HC16); type: functional;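 note: Dose-response counterscreen measuring inhibition of APOBEC3G DNA deaminase activity, run while confirming APOBEC3A inhibitors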
[3] = molecular target: Peroxisome proliferator-activated receptor gamma/Nuclear receptor coactivator 1 (Homo sapiens, UniProt P37231); test: TR-FRET dose response biochemical High Throughput Screening assay for agonists of the steroid receptor coactivator 1 (SRC-1) recruitment by the peroxisome proliferator-activated receptor gamma (PPAR gamma): non-selective agonists. [Related pubchem assays (depositor defined):AID1300, AID1808, AID504735, AID631]; type: protein assay
[4] = molecular target: Peroxisome proliferator-activated receptor gamma/Nuclear receptor coactivator 2 (Homo sapiens, UniProt P37231); test: TR-FRET dose response biochemical High Throughput Screening assay for agonists of the steroid receptor coactivator 2 (SRC-2) recruitment by the peroxisome proliferator-activated receptor gamma (PPAR gamma): non-selective agonists. [Related pubchem assays: 1297, 1032 ]; type: functional
[5] = molecular target: Peroxisome proliferator-activated receptor gamma/Nuclear receptor coactivator 3 (Homo sapiens, UniProt P37231); test: TR-FRET dose response biochemical High Throughput Screening assay for agonists of the steroid receptor coactivator 3 (SRC-3) recruitment by the peroxisome proliferator-activated receptor gamma (PPAR gamma): non-selective agonists. [Related pubchem assays: 1301 (Confirmation screen.), 1048 (Primary screen.)]; type: functional
[6] = molecular target: T1, Short transient receptor potential channel 4 (Mus musculus, UniProt Q9QUQ5); test: calcium entry via TRPC4 opening agents – cell-based, HEK293 TRPC4/mu-opioid, Fluo-4 calcium, dose response (AID 434937); type: functional
T1 sequence (Q9QUQ5 whole entry): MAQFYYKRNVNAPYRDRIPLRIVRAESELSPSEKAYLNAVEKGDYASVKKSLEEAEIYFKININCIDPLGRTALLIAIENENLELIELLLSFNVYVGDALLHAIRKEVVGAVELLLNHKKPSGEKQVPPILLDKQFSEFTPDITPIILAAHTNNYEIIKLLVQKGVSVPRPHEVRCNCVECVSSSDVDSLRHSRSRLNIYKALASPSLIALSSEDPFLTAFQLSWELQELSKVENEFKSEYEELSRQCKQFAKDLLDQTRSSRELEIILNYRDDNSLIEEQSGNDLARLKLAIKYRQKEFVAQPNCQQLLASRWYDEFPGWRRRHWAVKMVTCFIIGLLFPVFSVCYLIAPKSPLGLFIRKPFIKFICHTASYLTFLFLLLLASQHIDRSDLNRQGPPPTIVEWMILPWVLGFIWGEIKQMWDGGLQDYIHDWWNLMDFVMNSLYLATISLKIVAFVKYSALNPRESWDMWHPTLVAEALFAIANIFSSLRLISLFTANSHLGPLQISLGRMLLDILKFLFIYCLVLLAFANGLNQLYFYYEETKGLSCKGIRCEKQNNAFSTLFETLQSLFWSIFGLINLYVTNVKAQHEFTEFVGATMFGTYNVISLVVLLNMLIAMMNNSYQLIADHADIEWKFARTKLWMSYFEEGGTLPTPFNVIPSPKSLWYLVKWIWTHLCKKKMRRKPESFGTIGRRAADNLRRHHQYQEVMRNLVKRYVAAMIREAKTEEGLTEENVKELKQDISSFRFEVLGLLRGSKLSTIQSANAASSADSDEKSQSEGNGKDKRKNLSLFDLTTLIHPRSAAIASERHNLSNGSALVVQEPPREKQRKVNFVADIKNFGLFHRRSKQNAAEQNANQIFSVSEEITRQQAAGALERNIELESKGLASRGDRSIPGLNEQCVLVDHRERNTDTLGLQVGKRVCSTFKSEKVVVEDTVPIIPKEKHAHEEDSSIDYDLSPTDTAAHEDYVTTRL

[7] = molecular target: T2, Heat shock factor protein 1 (Mus musculus, UniProt P38532); test: decrease of HSF1-responsive luciferase luminescence – cell-based, NIH3T3, dose retest, confirmation (AID 2382); type: functional;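 note: NIH3T3 fibroblasts with HSF1-driven luciferase reporter stressed by proteasome inhibitor MG132; luminescence from HSF1-driven luciferase expression after 8 hours of MG132 stress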
T2 sequence (P38532 whole entry): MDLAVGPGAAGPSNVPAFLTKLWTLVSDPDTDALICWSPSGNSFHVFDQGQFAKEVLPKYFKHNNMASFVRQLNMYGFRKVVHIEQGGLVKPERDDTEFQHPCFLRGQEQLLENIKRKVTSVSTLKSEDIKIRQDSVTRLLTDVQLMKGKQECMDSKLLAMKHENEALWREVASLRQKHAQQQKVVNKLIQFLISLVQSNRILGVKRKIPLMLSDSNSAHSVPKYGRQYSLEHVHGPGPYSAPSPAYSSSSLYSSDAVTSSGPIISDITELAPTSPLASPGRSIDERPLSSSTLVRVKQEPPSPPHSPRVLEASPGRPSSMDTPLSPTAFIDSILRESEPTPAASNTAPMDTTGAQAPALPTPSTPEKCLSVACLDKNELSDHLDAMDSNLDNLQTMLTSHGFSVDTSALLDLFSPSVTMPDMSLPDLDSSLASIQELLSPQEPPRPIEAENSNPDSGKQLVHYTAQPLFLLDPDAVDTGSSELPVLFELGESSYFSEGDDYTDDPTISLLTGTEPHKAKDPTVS

Leucine aminopeptidase = molecular target: T3, Leucine aminopeptidase (Plasmodium falciparum 3D7, UniProt Q8IL11); test: P. falciparum M17LAP inhibitors, primary screen, biochemical, fluorogenic H-Leu-NHMec substrate, 1536-well (AID 1619); type: functional
T3 sequence (Q8IL11 whole entry): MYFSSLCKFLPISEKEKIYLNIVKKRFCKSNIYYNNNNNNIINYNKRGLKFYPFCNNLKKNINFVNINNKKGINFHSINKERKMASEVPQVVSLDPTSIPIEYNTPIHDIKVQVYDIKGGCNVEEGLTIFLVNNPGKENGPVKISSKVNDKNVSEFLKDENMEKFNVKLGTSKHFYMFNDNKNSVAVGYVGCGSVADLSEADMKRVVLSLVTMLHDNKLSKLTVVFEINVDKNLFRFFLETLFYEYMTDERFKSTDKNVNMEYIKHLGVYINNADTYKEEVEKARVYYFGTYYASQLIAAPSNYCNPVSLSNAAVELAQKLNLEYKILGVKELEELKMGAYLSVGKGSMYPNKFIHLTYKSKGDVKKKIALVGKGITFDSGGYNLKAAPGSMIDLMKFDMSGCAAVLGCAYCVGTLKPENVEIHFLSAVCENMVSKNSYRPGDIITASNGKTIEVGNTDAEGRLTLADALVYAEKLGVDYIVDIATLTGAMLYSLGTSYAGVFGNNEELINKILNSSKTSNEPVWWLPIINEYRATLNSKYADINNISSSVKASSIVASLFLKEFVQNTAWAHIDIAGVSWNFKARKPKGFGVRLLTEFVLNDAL

Protein RecA = molecular target: T4, Protein RecA (Mycobacterium tuberculosis, UniProt P9WHJ3); test: Fluorescence Cell-Free Homogeneous Dose Retest to Identify Inhibitors of RecA-Intein Splicing Activity. [Related pubchem assays (depositor defined):AID2097, AID2223, AID489010, AID492950]; type: functional
T4 sequence (P9WHJ3 whole entry): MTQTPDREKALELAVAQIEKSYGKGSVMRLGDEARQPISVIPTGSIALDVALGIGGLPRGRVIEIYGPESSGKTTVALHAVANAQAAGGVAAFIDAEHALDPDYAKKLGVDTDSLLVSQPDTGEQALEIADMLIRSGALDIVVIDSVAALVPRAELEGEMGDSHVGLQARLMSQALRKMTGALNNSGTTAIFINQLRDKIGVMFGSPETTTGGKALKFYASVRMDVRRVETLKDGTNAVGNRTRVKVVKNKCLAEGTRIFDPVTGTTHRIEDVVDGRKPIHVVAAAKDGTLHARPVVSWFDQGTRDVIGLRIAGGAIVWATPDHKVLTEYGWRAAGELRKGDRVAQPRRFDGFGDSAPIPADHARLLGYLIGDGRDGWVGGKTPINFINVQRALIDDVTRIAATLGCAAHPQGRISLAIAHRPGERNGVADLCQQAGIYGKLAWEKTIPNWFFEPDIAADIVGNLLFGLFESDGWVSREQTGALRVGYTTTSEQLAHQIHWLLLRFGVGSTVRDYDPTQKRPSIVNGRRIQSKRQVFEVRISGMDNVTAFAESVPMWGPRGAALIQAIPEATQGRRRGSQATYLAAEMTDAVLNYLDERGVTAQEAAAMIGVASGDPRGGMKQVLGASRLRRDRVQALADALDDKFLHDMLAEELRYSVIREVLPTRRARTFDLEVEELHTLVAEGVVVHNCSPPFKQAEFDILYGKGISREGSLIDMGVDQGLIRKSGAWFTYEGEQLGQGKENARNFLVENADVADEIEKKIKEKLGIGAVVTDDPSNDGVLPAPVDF

[8] = molecular target: T5, Replicative DNA helicase DnaB (Mycobacterium tuberculosis, UniProt P9WMR3); test: DnaB intein splicing inhibitors, dose response, biochemical, cell-free fluorescence (AID 449749); type: functional
T5 sequence (P9WMR3 whole entry): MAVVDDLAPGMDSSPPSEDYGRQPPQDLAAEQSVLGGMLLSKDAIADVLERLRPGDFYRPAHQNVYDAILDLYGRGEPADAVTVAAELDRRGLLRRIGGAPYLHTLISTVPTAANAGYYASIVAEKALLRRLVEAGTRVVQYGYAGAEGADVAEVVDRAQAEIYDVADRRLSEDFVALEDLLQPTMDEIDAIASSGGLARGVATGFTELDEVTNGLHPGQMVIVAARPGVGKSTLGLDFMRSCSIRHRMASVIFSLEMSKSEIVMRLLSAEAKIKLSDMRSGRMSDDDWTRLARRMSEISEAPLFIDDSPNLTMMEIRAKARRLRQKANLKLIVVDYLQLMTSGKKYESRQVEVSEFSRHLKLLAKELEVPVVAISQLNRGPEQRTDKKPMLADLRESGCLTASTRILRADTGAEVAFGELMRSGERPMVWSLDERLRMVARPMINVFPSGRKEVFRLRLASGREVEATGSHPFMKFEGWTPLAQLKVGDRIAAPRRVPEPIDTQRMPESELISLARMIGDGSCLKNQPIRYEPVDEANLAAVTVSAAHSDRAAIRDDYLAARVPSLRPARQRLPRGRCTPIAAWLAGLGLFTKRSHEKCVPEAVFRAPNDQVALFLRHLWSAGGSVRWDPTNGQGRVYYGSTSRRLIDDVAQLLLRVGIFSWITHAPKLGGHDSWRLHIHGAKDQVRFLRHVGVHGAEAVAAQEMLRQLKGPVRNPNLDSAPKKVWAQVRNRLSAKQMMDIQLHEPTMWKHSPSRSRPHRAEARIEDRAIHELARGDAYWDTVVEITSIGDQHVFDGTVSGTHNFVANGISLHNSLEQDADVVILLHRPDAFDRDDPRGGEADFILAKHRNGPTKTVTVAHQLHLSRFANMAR

[9] = A Cell Based Secondary Assay To Explore Cytotoxicity of Compounds that Sensitize Mycobacterium Tuberculosis to Beta-Lactam Antibiotics.; type: functional
[10] = viability of HCT116 lacking mutant beta-catenin – cell-based, human colon tumor, dose response (AID 1045); type: functional;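 note: HCT116 colon tumor cells with beta catenin knocked out; cells exposed to compound for 60 hours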
[11] = viability of PTEN-deleted HCT116 cells – cell-based, HCT116 PTEN knockout, dose response (AID 1047); type: functional;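 note: HCT116 colon tumor cells with PTEN knocked out; cells exposed to compound for 60 hours before readout; potency for loss of cell viability measured by luminescence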
[12] = molecular target: T6, Carboxy-terminal domain RNA polymerase II polypeptide A small phosphatase 1 (Homo sapiens, UniProt Q9GZU7); test: CTDSP1 inhibitors, concentration-response, biochemical, absorbance readout, ultra-high-throughput screen actives (AID 540297); type: functional
T6 sequence (Q9GZU7 whole entry): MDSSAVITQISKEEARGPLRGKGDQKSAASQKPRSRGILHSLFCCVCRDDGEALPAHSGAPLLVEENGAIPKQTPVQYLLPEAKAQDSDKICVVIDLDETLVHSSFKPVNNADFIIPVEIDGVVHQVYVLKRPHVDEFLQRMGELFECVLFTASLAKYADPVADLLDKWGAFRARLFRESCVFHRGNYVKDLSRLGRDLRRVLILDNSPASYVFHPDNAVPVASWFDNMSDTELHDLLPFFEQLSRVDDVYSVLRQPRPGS

Sequence of DNA dC->dU-editing enzyme APOBEC-3A (P31941 whole entry): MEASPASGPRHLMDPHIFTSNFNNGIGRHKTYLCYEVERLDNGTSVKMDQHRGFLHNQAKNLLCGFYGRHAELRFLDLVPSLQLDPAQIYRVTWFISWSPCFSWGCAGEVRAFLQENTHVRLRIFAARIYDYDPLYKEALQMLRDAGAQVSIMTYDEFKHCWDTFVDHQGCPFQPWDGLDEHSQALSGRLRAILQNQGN
Sequence of Peroxisome proliferator-activated receptor gamma/Nuclear receptor coactivator 1 (P37231 whole entry): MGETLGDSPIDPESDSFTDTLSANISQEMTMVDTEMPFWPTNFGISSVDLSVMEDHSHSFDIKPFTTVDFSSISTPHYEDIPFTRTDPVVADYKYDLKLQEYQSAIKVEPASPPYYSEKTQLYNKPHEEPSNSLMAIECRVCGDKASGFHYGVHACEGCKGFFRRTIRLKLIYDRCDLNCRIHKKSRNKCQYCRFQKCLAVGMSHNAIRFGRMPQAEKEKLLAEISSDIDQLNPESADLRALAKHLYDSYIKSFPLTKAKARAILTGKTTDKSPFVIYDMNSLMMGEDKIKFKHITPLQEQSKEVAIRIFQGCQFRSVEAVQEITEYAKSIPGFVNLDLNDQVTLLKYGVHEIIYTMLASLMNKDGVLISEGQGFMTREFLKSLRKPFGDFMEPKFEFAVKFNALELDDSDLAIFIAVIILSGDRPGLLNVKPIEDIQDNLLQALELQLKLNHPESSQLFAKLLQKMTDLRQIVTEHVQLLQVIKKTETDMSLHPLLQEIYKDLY
Sequence of Peroxisome proliferator-activated receptor gamma/Nuclear receptor coactivator 1 (Q15788 whole entry, further chain): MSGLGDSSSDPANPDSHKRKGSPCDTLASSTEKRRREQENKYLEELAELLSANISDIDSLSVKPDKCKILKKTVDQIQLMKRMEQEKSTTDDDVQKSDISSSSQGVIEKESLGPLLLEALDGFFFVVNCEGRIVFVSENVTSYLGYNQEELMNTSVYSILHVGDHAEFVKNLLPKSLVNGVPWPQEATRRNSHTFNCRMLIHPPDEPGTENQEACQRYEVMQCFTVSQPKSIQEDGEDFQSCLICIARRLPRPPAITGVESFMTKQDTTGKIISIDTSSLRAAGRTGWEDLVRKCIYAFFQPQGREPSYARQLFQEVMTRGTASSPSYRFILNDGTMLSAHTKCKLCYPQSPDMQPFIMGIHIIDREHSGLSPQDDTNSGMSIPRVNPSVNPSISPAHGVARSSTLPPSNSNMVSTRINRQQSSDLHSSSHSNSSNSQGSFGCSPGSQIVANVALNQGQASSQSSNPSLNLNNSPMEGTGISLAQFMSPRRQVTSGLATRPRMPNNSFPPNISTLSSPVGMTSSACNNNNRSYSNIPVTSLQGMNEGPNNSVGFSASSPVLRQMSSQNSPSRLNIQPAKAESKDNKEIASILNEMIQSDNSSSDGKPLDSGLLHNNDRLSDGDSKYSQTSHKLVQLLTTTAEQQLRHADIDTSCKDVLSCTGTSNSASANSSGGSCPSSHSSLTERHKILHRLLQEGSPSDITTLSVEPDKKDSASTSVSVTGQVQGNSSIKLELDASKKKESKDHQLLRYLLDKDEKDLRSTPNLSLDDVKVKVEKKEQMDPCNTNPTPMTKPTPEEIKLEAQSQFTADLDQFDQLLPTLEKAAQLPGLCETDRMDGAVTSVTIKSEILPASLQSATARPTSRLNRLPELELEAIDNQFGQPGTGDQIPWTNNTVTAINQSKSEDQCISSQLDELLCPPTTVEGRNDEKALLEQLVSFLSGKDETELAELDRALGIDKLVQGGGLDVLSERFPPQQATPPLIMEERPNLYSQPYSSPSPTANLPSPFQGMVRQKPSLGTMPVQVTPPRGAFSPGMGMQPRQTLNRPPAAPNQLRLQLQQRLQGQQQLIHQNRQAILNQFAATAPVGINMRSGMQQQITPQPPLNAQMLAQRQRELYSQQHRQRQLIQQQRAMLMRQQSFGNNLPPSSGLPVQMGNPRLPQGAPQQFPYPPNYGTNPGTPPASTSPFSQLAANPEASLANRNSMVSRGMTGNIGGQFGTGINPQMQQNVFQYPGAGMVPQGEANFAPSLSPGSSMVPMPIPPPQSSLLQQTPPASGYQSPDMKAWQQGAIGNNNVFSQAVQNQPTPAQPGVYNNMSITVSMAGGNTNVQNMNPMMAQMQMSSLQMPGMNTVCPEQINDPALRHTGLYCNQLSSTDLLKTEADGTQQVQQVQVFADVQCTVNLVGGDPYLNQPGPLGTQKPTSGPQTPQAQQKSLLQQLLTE
Sequence of Peroxisome proliferator-activated receptor gamma/Nuclear receptor coactivator 3 (P37231 whole entry): as the sequence (P37231 whole entry) above
Sequence of Peroxisome proliferator-activated receptor gamma/Nuclear receptor coactivator 3 (Q9Y6Q9 whole entry, further chain): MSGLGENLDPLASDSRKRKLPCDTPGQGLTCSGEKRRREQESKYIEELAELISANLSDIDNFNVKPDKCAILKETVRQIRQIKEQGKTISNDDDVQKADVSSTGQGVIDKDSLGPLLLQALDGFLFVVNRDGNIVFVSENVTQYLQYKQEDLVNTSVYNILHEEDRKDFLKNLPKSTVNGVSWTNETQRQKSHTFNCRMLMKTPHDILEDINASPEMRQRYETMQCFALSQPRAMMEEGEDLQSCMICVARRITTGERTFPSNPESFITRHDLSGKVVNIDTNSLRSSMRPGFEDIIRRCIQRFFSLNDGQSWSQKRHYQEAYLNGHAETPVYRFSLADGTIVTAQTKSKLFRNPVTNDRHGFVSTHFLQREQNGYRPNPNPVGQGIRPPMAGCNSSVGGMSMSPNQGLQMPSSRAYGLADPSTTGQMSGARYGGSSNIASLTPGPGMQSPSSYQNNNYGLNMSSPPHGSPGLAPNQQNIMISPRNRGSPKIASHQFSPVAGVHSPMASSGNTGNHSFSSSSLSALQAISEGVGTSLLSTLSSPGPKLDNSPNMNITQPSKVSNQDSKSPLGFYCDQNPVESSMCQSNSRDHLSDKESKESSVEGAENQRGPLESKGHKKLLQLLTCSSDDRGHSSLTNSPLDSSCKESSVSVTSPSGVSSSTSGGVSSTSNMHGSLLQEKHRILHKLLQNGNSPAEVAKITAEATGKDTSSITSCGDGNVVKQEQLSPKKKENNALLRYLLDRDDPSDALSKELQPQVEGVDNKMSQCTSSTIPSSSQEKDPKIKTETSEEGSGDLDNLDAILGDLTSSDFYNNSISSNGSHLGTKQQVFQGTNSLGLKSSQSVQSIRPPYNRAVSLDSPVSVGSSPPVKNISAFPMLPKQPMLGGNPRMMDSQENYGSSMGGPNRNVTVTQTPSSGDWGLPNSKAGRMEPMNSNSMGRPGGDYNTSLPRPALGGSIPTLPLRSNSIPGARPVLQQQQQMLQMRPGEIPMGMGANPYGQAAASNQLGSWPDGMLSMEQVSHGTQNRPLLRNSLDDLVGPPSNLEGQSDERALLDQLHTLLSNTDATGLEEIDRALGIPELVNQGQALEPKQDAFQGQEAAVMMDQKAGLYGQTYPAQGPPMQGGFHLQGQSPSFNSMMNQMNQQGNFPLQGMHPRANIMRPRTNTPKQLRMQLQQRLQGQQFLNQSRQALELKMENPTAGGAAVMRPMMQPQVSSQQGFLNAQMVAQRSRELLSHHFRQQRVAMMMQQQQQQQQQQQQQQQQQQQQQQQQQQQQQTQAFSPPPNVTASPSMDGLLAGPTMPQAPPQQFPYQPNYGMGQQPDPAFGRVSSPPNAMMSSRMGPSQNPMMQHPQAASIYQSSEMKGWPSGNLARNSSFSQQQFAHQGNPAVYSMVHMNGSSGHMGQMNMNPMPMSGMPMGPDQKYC
Sequence of DNA dC->dU-editing enzyme APOBEC-3G (Q9HC16 whole entry): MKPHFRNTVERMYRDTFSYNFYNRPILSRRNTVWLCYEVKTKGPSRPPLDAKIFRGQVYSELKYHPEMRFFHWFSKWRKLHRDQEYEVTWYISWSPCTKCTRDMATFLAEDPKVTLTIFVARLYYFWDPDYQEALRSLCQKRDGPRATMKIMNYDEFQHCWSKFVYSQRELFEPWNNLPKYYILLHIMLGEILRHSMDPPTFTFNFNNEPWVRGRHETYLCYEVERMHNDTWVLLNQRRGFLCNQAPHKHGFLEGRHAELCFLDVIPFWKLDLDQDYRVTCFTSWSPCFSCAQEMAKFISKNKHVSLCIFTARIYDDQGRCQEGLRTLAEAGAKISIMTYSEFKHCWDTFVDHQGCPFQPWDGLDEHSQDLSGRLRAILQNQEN

SMILES	IC50 [1]	IC50 [2]	EC50 [3]	EC50 [4]	EC50 [5]	EC50 [6]	also measured
CCc1noc(C)c1C(=O)Nc1cc(S(=O)(=O)N2CCOCC2)ccc1N1CCN(CC)CC1	3.46 µM (active)	5.53 µM (active)	–	–	–	–	–
CCn1c(=O)cc(SCC(=O)Nc2cccc(C)n2)c2ccccc21	–	–	> 79.4 µM (inactive)	> 79.4 µM (not active)	> 79.4 µM (not active)	–	–
Cc1nc(NCC(c2ccccc2)N(C)C)c2c(C)c(C)sc2n1 (stereo unspecified)	–	–	–	–	–	335 nM (active)	–
COC(=O)c1c(N=C(S)Nc2ccc(CC(=O)O)cc2)sc(C)c1C	–	–	13.3 µM (inactive)	9.39 µM (active)	> 79.4 µM (not active)	–	–
C=CCn1c(=S)[nH]c2scc(-c3cccs3)c2c1=O	–	–	4.03 µM (active)	5.27 µM (active)	> 79.4 µM (not active)	–	–
Cc1sc2ncnc(NCC(c3ccccc3)N(C)C)c2c1C (stereo unspecified)	–	–	–	–	–	237 nM (active)	–
Cc1cccc(C(=O)NC(=S)NNC(=O)c2ccccc2Cl)c1	–	–	–	–	–	1680 nM (active)	EC50 [7]: > 195 µM (not active); IC50 (Leucine aminopeptidase): 58 µM (active)
COc1ccc(NC(=O)COc2ccc(/C=C/c3cc[n+](C)cc3)cc2OC)cc1	3.69 µM (active)	3.92 µM (active)	–	–	–	–	–
O=S(=O)(Cc1ccccc1)c1cnc2ccccc2n1	–	–	–	–	–	–	EC50 (Protein RecA): 18.3 µM (active); AC50 [8]: > 380 µM (inactive); CC50 [9]: 34 µM (active); EC50 [10]: 12.2 µM (active); EC50 [11]: 14.1 µM (active)
O=C(CSc1nc2sccc2c(=O)[nH]1)N1CCN(c2ccccc2)CC1	11.5 µM (active)	9.27 µM (active)	–	–	–	–	IC50 [12]: 10.7 µM (active)
